Data from article PMC11880984, “Altered O‐glycosylation of β1‐adrenergic receptor N‐terminal single‐nucleotide variants modulates receptor processing and functional activity” (The Febs Journal, 2024).

Target: T1, hβ1AR (human β1-adrenergic receptor), WT S49 R389 (Homo sapiens, UniProt P08588)
T1 construct: gene ADRB1; full-length WT (S49, R389) with HA signal peptide, N-terminal MYC tag and C-terminal FLAG tag (pFT-SMMF); N-terminal part partly cleaved at R31/L32 in cells
Experiment: radioligand saturation binding, membranes of stable HEK293i cells

T1 sequence (P08588 whole entry G389R): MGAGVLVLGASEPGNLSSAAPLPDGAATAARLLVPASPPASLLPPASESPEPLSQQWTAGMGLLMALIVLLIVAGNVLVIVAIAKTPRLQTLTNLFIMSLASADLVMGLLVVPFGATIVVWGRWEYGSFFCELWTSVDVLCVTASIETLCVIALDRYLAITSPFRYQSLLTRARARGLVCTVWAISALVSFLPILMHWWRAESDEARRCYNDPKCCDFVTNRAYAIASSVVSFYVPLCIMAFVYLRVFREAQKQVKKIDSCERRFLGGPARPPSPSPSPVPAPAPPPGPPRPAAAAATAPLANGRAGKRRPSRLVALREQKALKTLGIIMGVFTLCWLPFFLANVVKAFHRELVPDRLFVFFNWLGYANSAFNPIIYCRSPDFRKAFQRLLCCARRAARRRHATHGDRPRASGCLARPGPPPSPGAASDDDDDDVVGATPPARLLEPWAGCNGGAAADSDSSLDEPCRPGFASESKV

- Kd: 0.42 ± 0.04 nM
Compound: CCCc1ccccc1OCC(O)CNC(C)C (stereo not shown) [[^3H]dihydroalprenolol]
